Measured values as given in PMC11938010, “Positive Charge in an Antimalarial Compound Unlocks Broad-Spectrum Antibacterial Activity” (JACS Au, 2025).
In brackets after ≈: the same amount, converted by molar mass. Read-outs that look alike come from different tables or passages of the source.

Columns and labels:
[1] = tested on: Plasmodium falciparum NF54; assay: P. falciparum in vitro drug sensitivity assay on asexual blood stage parasites ([3H]-hypoxanthine incorporation); type: cell-based; conditions: for IC50: read-out: PfNF54 IC50
Escherichia coli ∆tolC = assay: microbe, parasite or virus in culture; type: cell-based; conditions: for MIC / inhibition at 50 µM: Escherichia coli; for inhibition at 50 µM: read-out: Ec∆tolC inh. at 50 µM (%)
E. coli K12 = assay: In vitro antibacterial activity (growth inhibition, OD600), E. coli wild-type; type: cell-based; conditions: Escherichia coli
Acinetobacter baumannii = assay: In vitro antibacterial activity (growth inhibition, OD600), A. baumannii; type: cell-based
[2] = tested on: Pseudomonas aeruginosa PA14; assay: In vitro antibacterial activity (growth inhibition, OD600), P. aeruginosa; type: cell-based
[3] = tested on: Streptococcus pneumoniae (DSM20566); assay: In vitro antibacterial activity (MIC), S. pneumoniae; type: cell-based; conditions: Streptococcus pneumoniae, DSM20566, read-out: Sp MIC95
[4] = tested on: Staphylococcus aureus ssp. Aureus; assay: In vitro antibacterial activity (MIC), S. aureus; type: cell-based; conditions: Staphylococcus aureus, read-out: Sa MIC95
[5] = tested on: Mycobacterium tuberculosis (Mtb) strain H37Rv; assay: microbe, parasite or virus in culture; type: cell-based; conditions: 168 h, 7 days, footnote b: not active at maximum solubility, read-out: MtbH37Rv MIC90
in vitro = conditions: human
[6] = Plasmodium falciparum, NF54, Table 1 and main text
[7] = K12, 50 µM, Table S1, with standard deviation, read-out: EcK12 inh. at 50 µM (%)
[8] = K12, read-out: EcK12 inh. at 50 μM, 50 μM compound, Table 1 and main text
[9] = 50 μM compound, Table 1 and main text, read-out: Ab inh. at 50 μM
[10] = PA14, 50 μM compound, Table 1 and main text, read-out: PA14 inh. at 50 μM
[11] = Table S2, with standard deviation
[12] = 50 µM, Table S1, with standard deviation, read-out: Ab inh. at 50 µM (%)
[13] = PA14, 50 µM, Table S1, with standard deviation, read-out: PA14 inh. at 50 µM (%)

Row | Structure (SMILES) | IC50 [1, 6] [nM] | MIC (Escherichia coli ∆tolC; read-out: EcΔtolC MIC95) [µM] | inhibition at 50 µM (E. coli K12; [7]) [%] | MIC ([3]; Table 1 and main text) [µM] | MIC [3, 11] [µM] | MIC ([4]; Table 1 and main text) [µM] | MIC [4, 11] [µM] | MIC90 [5] [µM] | CC50 (in vitro; HepG2 CC50, 48 h, MTT) [µM] | inhibition at 50 µM (Escherichia coli ∆tolC) [%] | also measured
1 | O=C(Nc1cc(CNC2=NCCN2)cc(C(F)(F)F)c1)c1cc(-c2cc(Cl)ccc2O)[nH]n1 [Compound 9C, 5-(5-Chloro-2-hydroxyphenyl)-N-(3-(((4,5-dihydro-1H-imidazol-2-yl)amino)methyl)-5-(trifluoromethyl)phenyl)-1H-pyrazole-3-carboxamide] | 517 | 7 (≈ 3.35 µg/mL) | 84 ± 2 | 15 (≈ 7.18 µg/mL) | 15 ± 4 (≈ 7.18 µg/mL) | 9 (≈ 4.31 µg/mL) | 9 ± 2 (≈ 4.31 µg/mL) | 16 (≈ 7.66 µg/mL) | > 50 |  | MIC (Escherichia coli ∆tolC; read-out: Ec∆tolC MIC95 (µM)): 7 ± 1 µM (≈ 3.35 µg/mL); inhibition at 50 µM (E. coli K12; [8]): < 10%; inhibition at 50 µM (Acinetobacter baumannii; [9]): 47%; inhibition at 50 µM [2, 10]: 18%
2 | O=C(c1cc(-c2cc(Cl)ccc2O)[nH]n1)N1CCNCC1 [Compound 14A, (5-(5-Chloro-2-hydroxyphenyl)-1H-pyrazol-3-yl)(piperazin-1-yl)methanone] | 3300 | > 50 |  | > 50 | > 50 | > 50 | > 50 | > 16 | > 50 | 18 ± 4 | PfNF54 IC50 ([1]; Table 1 and main text): inactive
3 | O=C(Nc1ccc(N2CCNCC2)c(C(F)(F)F)c1)c1cc(-c2cc(Cl)ccc2O)[nH]n1 [Compound 12A, 5-(5-Chloro-2-hydroxyphenyl)-N-(4-(piperazin-1-yl)-3-(trifluoromethyl)phenyl)-1H-pyrazole-3-carboxamide] | ≤ 60 | 18.9 (≈ 8.8 µg/mL) |  | 8 (≈ 3.73 µg/mL) | 8 ± 2 (≈ 3.73 µg/mL) | 14 (≈ 6.52 µg/mL) | 14 ± 2 (≈ 6.52 µg/mL) | 16 (≈ 7.45 µg/mL) | 6 |  | IC50 ([1]; Table 1 and main text): 60 nM; MIC (Escherichia coli ∆tolC; read-out: Ec∆tolC MIC95 (µM)): 18.9 ± 0.5 µM (≈ 8.8 µg/mL); inhibition at 50 µM (E. coli K12; K12, 50 μM compound, Table 1 and main text, read-out: EcK12 inh. at 50 μM): 12%; inhibition at 50 µM (Acinetobacter baumannii; [9]): 29%; inhibition at 50 µM [2, 10]: < 10%
4 | O=C(Nc1ccc(CNC2=NCCN2)c(C(F)(F)F)c1)c1cc(-c2cc(Cl)ccc2O)[nH]n1 [Compound 10C, 5-(5-Chloro-2-hydroxyphenyl)-N-(4-(((4,5-dihydro-1H-imidazol-2-yl)amino)methyl)-3-(trifluoromethyl)phenyl)-1H-pyrazole-3-carboxamide] | 404 | 5.5 (≈ 2.63 µg/mL) |  | 14 (≈ 6.7 µg/mL) | 14 ± 2 (≈ 6.7 µg/mL) | 8 (≈ 3.83 µg/mL) | 8 ± 2 (≈ 3.83 µg/mL) | 16 (≈ 7.66 µg/mL) | > 50 |  | MIC (Escherichia coli ∆tolC; read-out: Ec∆tolC MIC95 (µM)): 5.5 ± 0.8 µM (≈ 2.63 µg/mL); inhibition at 50 µM (E. coli K12; [8]): 77%; inhibition at 50 µM (Acinetobacter baumannii; [9]): 47%; inhibition at 50 µM (Acinetobacter baumannii; [12]): 49.6 ± 0.9%; inhibition at 50 µM [2, 10]: 29%
5 | O=C(Nc1ccc(C(F)(F)F)c(N2CCNCC2)c1)c1cc(-c2cc(Cl)ccc2O)[nH]n1 [Compound 13A, 5-(5-Chloro-2-hydroxyphenyl)-N-(3-(piperazin-1-yl)-4-(trifluoromethyl)phenyl)-1H-pyrazole-3-carboxamide] | 160 | > 50 |  | 29 (≈ 13.5 µg/mL) | 29 ± 2 (≈ 13.5 µg/mL) | > 50 | > 50 | 32 (≈ 14.9 µg/mL) | 8 | 46 ± 5 | inhibition at 50 µM (Acinetobacter baumannii; [12]): < 10%; inhibition at 50 µM [2, 13]: < 10%
6 | CC(C)(C)OC(=O)NCc1cc(NC(=O)c2cc(-c3cc(Cl)ccc3O)[nH]n2)cc(C(F)(F)F)c1 [Compound 9B, tert-Butyl (3-(5-(5-chloro-2-hydroxyphenyl)-1H-pyrazole-3-carboxamido)-5-(trifluoromethyl)benzyl)carbamate] | 203 | > 50 |  | 30 (≈ 15.3 µg/mL) | 30 ± 5 (≈ 15.3 µg/mL) | > 50 | > 50 | > 64 | 5 | 48 ± 8 | 
7 | N=C(N)N1CCN(C(=O)c2cc(-c3cc(Cl)ccc3O)[nH]n2)CC1 [Compound 14G] | > 5000 | > 50 |  | > 50 | > 50 | > 50 | > 50 | > 64 | > 50 | 18 ± 9 | PfNF54 IC50 ([1]; Table 1 and main text): inactive
8 | CC(C)(C)OC(=O)N1CCN=C1NCc1cc(NC(=O)c2cc(-c3cc(Cl)ccc3O)[nH]n2)cc(C(F)(F)F)c1 [Compound 9D] | 150 | 24 (≈ 13.9 µg/mL) |  | 21 (≈ 12.2 µg/mL) | 21 ± 9 (≈ 12.2 µg/mL) | 12 (≈ 6.95 µg/mL) | 12 ± 3 (≈ 6.95 µg/mL) | 16 (≈ 9.26 µg/mL) | 14 |  | MIC (Escherichia coli ∆tolC; read-out: Ec∆tolC MIC95 (µM)): 24 µM (≈ 13.9 µg/mL); EcΔtolC MIC95 (Escherichia coli ∆tolC; Table 1 and main text): 24.0 µM; inhibition at 50 µM (Acinetobacter baumannii; [12]): 81.6 ± 0.6%; inhibition at 50 µM [2, 10]: 21%
9 | CC(C)(C)OC(=O)N1CCN=C1NCc1ccc(NC(=O)c2cc(-c3cc(Cl)ccc3O)[nH]n2)cc1 [Compound 8D] |  | > 50 |  | > 50 | > 50 | > 50 | > 50 | > 64 | > 50 | 18.5 ± 0.8 | 
10 | CC(C)(C)OC(=O)N1CCN(c2cccc(NC(=O)c3cc(-c4cc(Cl)ccc4O)[nH]n3)c2)CC1 [Compound 5B] | 900 | > 50 | < 10 | > 50 | > 50 | > 50 | > 50 |  | > 50 | 19 ± 14 | 
11 | O=C(c1cc(-c2cc(Cl)ccc2O)[nH]n1)N1CCOCC1 [Compound 1e] | > 5000 | > 50 |  | > 50 | > 50 | > 50 | > 50 | > 16 | > 50 | 23 ± 3 | PfNF54 IC50 ([1]; Table 1 and main text): inactive
12 | CC(C)(C)OC(=O)N1CCN=C1NCc1cccc(NC(=O)c2cc(-c3cc(Cl)ccc3O)[nH]n2)c1 [Compound 7D] | 360 | 14 (≈ 7.15 µg/mL) |  | 31 (≈ 15.8 µg/mL) | 31 ± 11 (≈ 15.8 µg/mL) | 24 (≈ 12.3 µg/mL) | 24 (≈ 12.3 µg/mL) | 64 (≈ 32.7 µg/mL) | 19 |  | MIC (Escherichia coli ∆tolC; read-out: Ec∆tolC MIC95 (µM)): 14 ± 4 µM (≈ 7.15 µg/mL); inhibition at 50 µM (E. coli K12; [8]): ≥ 45%; inhibition at 50 µM [2, 10]: ≥ 45%; inhibition at 50 µM [2, 13]: 54.8 ± 0.8%
13 | CC(C)(C)OC(=O)N1CCN(c2ccc(NC(=O)c3cc(-c4cc(Cl)ccc4O)[nH]n3)cc2)CC1 [Compound 6B] | 1610 | > 50 |  | > 50 | > 50 | > 50 | > 50 |  | > 50 | < 10 | 
14 | CC(C)(C)OC(=O)N1CCN(c2cc(NC(=O)c3cc(-c4cc(Cl)ccc4O)[nH]n3)ccc2C(F)(F)F)CC1 [Compound 13B, tert-Butyl 4-(5-(5-(5-chloro-2-hydroxyphenyl)-1H-pyrazole-3-carboxamido)-2-(trifluoromethyl)phenyl)piperazine-1-carboxylate] | 342 | > 50 |  | > 50 |  | > 50 |  |  | 2.8 | < 10 | 
15 | CC(C)(C)OC(=O)NCc1cccc(NC(=O)c2cc(-c3cc(Cl)ccc3O)[nH]n2)c1 [Compound 7B] | 1100 | > 50 | < 10 | > 50 | > 50 | > 50 | > 50 |  | > 50 | < 10 | 
16 | CC(C)(C)OC(=O)NCc1ccc(NC(=O)c2cc(-c3cc(Cl)ccc3O)[nH]n2)cc1C(F)(F)F [Compound 10B, tert-Butyl (4-(5-(5-chloro-2-hydroxyphenyl)-1H-pyrazole-3-carboxamido)-2-(trifluoromethyl)benzyl)carbamate] | 190 | > 50 | < 10 | > 50 | > 50 | > 50 | > 50 |  | > 50 | < 10 | inhibition at 50 µM (Acinetobacter baumannii; [12]): < 10%
17 | CC(C)(C)OC(=O)N1CCN(Cc2cccc(NC(=O)c3cc(-c4cc(Cl)ccc4O)[nH]n3)c2)CC1 [Compound 3B] | 1000 | > 50 | < 10 | > 50 | > 50 | > 50 | > 50 |  | 25 |  | 
18 | CC(C)(C)OC(=O)N1CCN(Cc2ccc(NC(=O)c3cc(-c4cc(Cl)ccc4O)[nH]n3)cc2)CC1 [Compound 4B] | 200 | > 50 | 17 ± 13 | > 50 | > 50 | > 50 | > 50 |  | 7 |  | CC50 (in vitro; HepG2 CC50 (µM), Table S2, with standard deviation): 7.4 ± 0.7 µM
19 | Cc1ccc(NC(=O)c2cc(-c3cc(Cl)ccc3O)[nH]n2)cc1 [Compound 1d] | > 2000 | > 50 |  | > 50 | > 50 | > 50 | > 50 |  | > 50 | < 10 | IC50 ([1]; Table 1 and main text): 2400 nM
